Test results published in ChEMBL document CHEMBL1201862, “PubChem BioAssay data set” (2004).
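Cultured in 96-well plates, cells were exposed to test compound for 48 hours across five concentrations. GI50 = concentration required for 50% inhibition of growth.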 Calls of active or inactive are those of the source. Rule as the data show it: active = GI50 up to about 1.1 µM and inactive = higher.

Experiments:
Assay in all cases: NCI-60 cell line screen, 48 h
OVCAR-8 = test system: OVCAR-8
A498 = test system: A498
SF-539 = test system: SF-539
MDA-MB-231 = test system: MDA-MB-231
UACC-62 = test system: UACC-62
UACC-257 = test system: UACC-257
CCRF-CEM = test system: CCRF-CEM
LOX IMVI = test system: LOX IMVI
HCT-116 = test system: HCT-116
SK-MEL-5 = test system: SK-MEL-5
SF-268 = test system: SF-268
HT-29 = test system: HT-29
TK-10 = test system: TK-10
KM12 = test system: KM12
T47D = test system: T47D
NCI-H522 = test system: NCI-H522
SK-OV-3 = test system: SK-OV-3
IGROV-1 = test system: IGROV-1
HCT-15 = test system: HCT-15
OVCAR-4 = test system: OVCAR-4
CAKI-1 = test system: CAKI-1
MCF7 = test system: MCF7
SF-295 = test system: SF-295
BT-549 = test system: BT-549
NCI-H23 = test system: NCI-H23
RPMI-8226 = test system: RPMI-8226
Hs-578T = test system: Hs-578T
NCI-H226 = test system: NCI-H226
UO-31 = test system: UO-31
NCI-H460 = test system: NCI-H460
RXF 393 = test system: RXF 393
PC-3 = test system: PC-3
K562 = test system: K562
SW-620 = test system: SW-620
HOP-62 = test system: HOP-62
MDA-MB-435 = test system: MDA-MB-435
COLO 205 = test system: COLO 205
U-251 = test system: U-251
EKVX = test system: EKVX
M14 = test system: M14
SK-MEL-2 = test system: SK-MEL-2
SK-MEL-28 = test system: SK-MEL-28
OVCAR-3 = test system: OVCAR-3
SNB-19 = test system: SNB-19
DU-145 = test system: DU-145
OVCAR-5 = test system: OVCAR-5
ACHN = test system: ACHN
SN12C = test system: SN12C
SNB-75 = test system: SNB-75
NCI/ADR-RES = test system: NCI/ADR-RES
MOLT-4 = test system: MOLT-4
HOP-92 = test system: HOP-92
786-0 = test system: 786-0
Malme-3M = test system: Malme-3M
A549 = test system: A549
HCC 2998 = test system: HCC 2998
SR = test system: SR
HL-60 = test system: HL-60

CSC(=S)NN=C1CCCC1.CSC(=S)NN=C1CCCC1.[Zn+2]
GI50 (OVCAR-8): 14.4 µM (inactive)
GI50 (A498): > 100 µM (inactive)
GI50 (SF-539): 21.3 µM (inactive)
GI50 (MDA-MB-231): 17.8 µM (inactive)
GI50 (UACC-62): 28.2 µM (inactive)
GI50 (UACC-257): 24 µM (inactive)
GI50 (CCRF-CEM): < 0.01 µM (active)
GI50 (LOX IMVI): 10.7 µM (inactive)
GI50 (HCT-116): 14.7 µM (inactive)
GI50 (SK-MEL-5): 57.1 µM (inactive)
GI50 (SF-268): 34.1 µM (inactive)
GI50 (HT-29): 19.5 µM (inactive)
GI50 (TK-10): 19.8 µM (inactive)
GI50 (KM12): 41 µM (inactive)
GI50 (T47D): 33.5 µM (inactive)
GI50 (NCI-H522): 15.7 µM (inactive)
GI50 (SK-OV-3): > 100 µM (inactive)
GI50 (IGROV-1): 10.1 µM (inactive)
GI50 (HCT-15): 1.99 µM
GI50 (OVCAR-4): 52.5 µM (inactive)
GI50 (CAKI-1): 46.7 µM (inactive)
GI50 (MCF7): 34.7 µM (inactive)
GI50 (SF-295): 16.8 µM (inactive)
GI50 (BT-549): 24 µM (inactive)
GI50 (NCI-H23): > 100 µM (inactive)
GI50 (RPMI-8226): 11.5 µM (inactive)
GI50 (Hs-578T): 29.2 µM (inactive)
GI50 (NCI-H226): 43.9 µM (inactive)
GI50 (UO-31): 13.4 µM (inactive)
GI50 (NCI-H460): 31.6 µM (inactive)
GI50 (RXF 393): 28.4 µM (inactive)
GI50 (PC-3): 25.8 µM (inactive)
GI50 (K562): 50.4 µM (inactive)
GI50 (SW-620): 17.1 µM (inactive)
GI50 (HOP-62): 28.3 µM (inactive)
GI50 (MDA-MB-435): 28.4 µM (inactive)
GI50 (COLO 205): 34.6 µM (inactive)
GI50 (U-251): 8.93 µM (inactive)
GI50 (EKVX): 55.1 µM (inactive)
GI50 (M14): 40.1 µM (inactive)
GI50 (SK-MEL-2): 22.7 µM (inactive)
GI50 (SK-MEL-28): 72.4 µM (inactive)
GI50 (OVCAR-3): 24.6 µM (inactive)
GI50 (SNB-19): 40.9 µM (inactive)
GI50 (DU-145): 58.5 µM (inactive)
GI50 (OVCAR-5): 31.3 µM (inactive)
GI50 (ACHN): 1.83 µM (inactive)
GI50 (SN12C): 17.9 µM (inactive)
GI50 (SNB-75): > 100 µM (inactive)
GI50 (NCI/ADR-RES): > 100 µM (inactive)
GI50 (MOLT-4): 9.66 µM (inactive)
GI50 (HOP-92): 0.0415 µM (active)
GI50 (786-0): 33.5 µM (inactive)
GI50 (Malme-3M): 12.5 µM (inactive)
GI50 (A549): 18.8 µM (inactive)

COc1ccc(CC2c3cc(OC)c(OC)c(OC)c3CC[N+]2(C)C)cc1Oc1ccc(CC2c3cc4c(c(OC)c3CC[N+]2(C)C)OCO4)cc1 (stereo not drawn)
GI50 (OVCAR-8): > 100 µM (inactive)
GI50 (A498): > 100 µM (inactive)
GI50 (MDA-MB-231): > 100 µM (inactive)
GI50 (UACC-62): > 100 µM (inactive)
GI50 (HCC 2998): > 100 µM (inactive)
GI50 (UACC-257): > 100 µM (inactive)
GI50 (CCRF-CEM): > 100 µM (inactive)
GI50 (LOX IMVI): > 100 µM (inactive)
GI50 (HCT-116): > 100 µM (inactive)
GI50 (SK-MEL-5): > 100 µM (inactive)
GI50 (SF-268): > 100 µM (inactive)
GI50 (HT-29): > 100 µM (inactive)
GI50 (TK-10): > 100 µM (inactive)
GI50 (KM12): > 100 µM (inactive)
GI50 (T47D): > 100 µM (inactive)
GI50 (NCI-H522): > 100 µM (inactive)
GI50 (SK-OV-3): > 100 µM (inactive)
GI50 (IGROV-1): > 100 µM (inactive)
GI50 (HCT-15): > 100 µM
GI50 (OVCAR-4): > 100 µM (inactive)
GI50 (CAKI-1): > 100 µM (inactive)
GI50 (MCF7): 96.2 µM (inactive)
GI50 (SF-295): > 100 µM (inactive)
GI50 (BT-549): > 100 µM (inactive)
GI50 (NCI-H23): > 100 µM (inactive)
GI50 (Hs-578T): 80.9 µM (inactive)
GI50 (NCI-H226): > 100 µM (inactive)
GI50 (UO-31): > 100 µM (inactive)
GI50 (NCI-H460): > 100 µM (inactive)
GI50 (PC-3): > 100 µM (inactive)
GI50 (K562): > 100 µM (inactive)
GI50 (SW-620): > 100 µM (inactive)
GI50 (MDA-MB-435): > 100 µM (inactive)
GI50 (COLO 205): > 100 µM (inactive)
GI50 (SR): > 100 µM (inactive)
GI50 (U-251): > 100 µM (inactive)
GI50 (HL-60): > 100 µM (inactive)
GI50 (EKVX): > 100 µM (inactive)
GI50 (M14): > 100 µM (inactive)
GI50 (SK-MEL-2): > 100 µM (inactive)
GI50 (SK-MEL-28): > 100 µM (inactive)
GI50 (SNB-19): > 100 µM (inactive)
GI50 (DU-145): > 100 µM (inactive)
GI50 (OVCAR-5): > 100 µM (inactive)
GI50 (ACHN): > 100 µM (inactive)
GI50 (SN12C): > 100 µM (inactive)
GI50 (SNB-75): 91.6 µM (inactive)
GI50 (NCI/ADR-RES): > 100 µM (inactive)
GI50 (MOLT-4): > 100 µM (inactive)
GI50 (HOP-92): > 100 µM (inactive)
GI50 (786-0): > 100 µM (inactive)
GI50 (Malme-3M): > 100 µM (inactive)
GI50 (A549): 34.4 µM (inactive)
